Experimental findings from patent US20230303540A1 (Merck Sharp & Dohme LLC, priority 2020, published 2023) are described below.

The test deals with GST-tagged truncated human mutant G2019S LRRK2 (Homo sapiens, UniProt Q5S007, G2019S). Put plainly: LRRK2 G2019S Km ATP LanthaScreen assay. The format is biochemical. The conditions noted are these: 134 μM ATP (Km ATP), LRRKtide substrate, mean IC50 values; read-out: LRRK2 pIC50 (converted). How it is done:
Unless otherwise noted, all reactions are magnetically stirred. Unless otherwise noted, when diethyl ether is used in the experiments described below, it is Fisher ACS certified material and is stabilized with BHT. Unless otherwise noted, “concentrated” and/or “solvent removed under reduced pressure” means evaporating the solvent from a solution or mixture using a rotary evaporator or vacuum pump. Unless otherwise noted, flash chromatography is carried out on a Teledyne Isco (Lincoln, NE), Analogix (Burlington, WI), or Biotage (Stockholm, SWE) automated chromatography system using a commercially available cartridge as the column. Columns may be purchased from Teledyne Isco, Analogix, Biotage, Varian (Palo Alto, CA), or Supelco (Bellefonte, PA) and are usually filled with silica gel as the stationary phase. Reverse phase prep-HPLC conditions, where used, can be found at the end of each experimental section. Aqueous solutions were concentrated on a Genevac (Ipswich, ENG) or by freeze-drying/lyophilization. Unless otherwise noted, all LRRK2 pIC50 data presented in tables refers to the LRRK2 G2019S Km ATP LanthaScreen™ assay (Life Technologies Corp., Carlsbad, CA) that is described in the Biological Assay section.
The IC50 values reported herein were measured as follows.
Biological Assay: LRRK2 Km ATP LanthaScreen™ Assay
The LRRK2 kinase activity reported herein as IC50 values was determined with LanthaScreen™ technology from Life Technologies Corporation (Carlsbad, CA) using GST-tagged truncated human mutant G2019S LRRK2 in the presence of the fluorescein-labeled peptide substrate LRRKtide, also from Life Technologies. The data presented for the Km ATP LanthaScreen™ Assay represents mean IC50 values based on several test results and may have reasonable deviations depending on the specific conditions and reagents used. Assays were performed in the presence of 134 μM ATP (Km ATP). Upon completion, the assay was stopped and phosphorylated substrate detected with a terbium (Tb)-labeled anti-pERM antibody (cat. no. PV4898). The compound dose response was prepared by diluting a 10 mM stock of compound to a maximum concentration of 9.99 μM in 100% dimethylsulfoxide followed by custom fold serial dilution in dimethylsulfoxide nine times. Twenty nanoliters of each dilution was spotted via a Labcyte Echo onto a 384-well black-sided plate (Corning 3575) followed by 15 μl of a 1.25 nM enzyme solution in 1× assay buffer (50 mM Tris pH 8.5, 10 mM MgCl2, 0.01% Brij-35, 1 mM EGTA, 2 mM dithiothreitol, 0.05 mM sodium orthovanadate). Following a 15-minute incubation at room temperature, the kinase reaction was started with the addition of 5 μl of 400 nM fluorescein-labeled LRRKtide peptide substrate and 134 μM ATP solution in 1× assay buffer. The reaction was allowed to progress at ambient temperature for 90 minutes. The reaction was then stopped by the addition of 20 μl of TR-FRET Dilution Buffer (Life Technologies, Carlsbad, CA) containing 2 nM Tb-labeled anti-phospho LRRKtide antibody and 10 mM EDTA (Life Technologies, Carlsbad, CA). After an incubation of 1 hour at room temperature, the plate was read on an EnVision multimode plate reader (Perkin Elmer, Waltham, MA) with an excitation wavelength of 337 nm (Laser) and a reading emission at both 520 and 495 nm. Compound IC50s were interpolated from nonlinear regression best fits of the log of the final compound concentration, plotted as a function of the 520/495-nm emission ratio using Activity base. Abase uses a 4 parameter (4P) logistic fit based on the Levenberg-Marquardt algorithm.
On the technique in general: In TR-FRET formats the signal depends on donor and acceptor labels being close together.
As to `Cc1c(Nc2ncc3cc(Cl)c(N4CCC(C)(O)C(C)C4)cc3n2)cnn1C1CC1` (single isomer, unassigned) [Ex-3.48, (3R,4R) or (3S,4S) or (3R,4S) or (3S,4R) 1-{6-chloro-2-[(1-cyclopropyl-5-methyl-1H-pyrazol-4-yl)amino]quinazolin-7-yl}-3,4-dimethylpiperidin-4-ol], the IC50 was 1.46 nM. As for `Cc1c(Nc2ncc3cc(Cl)c(N4CCC(C)(O)C(C)C4)cc3n2)cnn1C1CC1` (single isomer, unassigned) [Ex-3.49, (3R,4R) or (3S,4S) or (3R,4S) or (3S,4R) 1-{6-chloro-2-[(1-cyclopropyl-5-methyl-1H-pyrazol-4-yl)amino]quinazolin-7-yl}-3,4-dimethylpiperidin-4-ol], the IC50 was 1.33 nM. Take `Cc1c(Nc2ncc3cc(Cl)c(N4CCC(C)(O)C(C)C4)cc3n2)cnn1C1CC1` (single isomer, unassigned) [Ex-3.50, (3R,4R) or (3S,4S) or (3R,4S) or (3S,4R) 1-{6-chloro-2-[(1-cyclopropyl-5-methyl-1H-pyrazol-4-yl)amino]quinazolin-7-yl}-3,4-dimethylpiperidin-4-ol]: the IC50 was 0.821 nM. As for `O[C@@H]1COC[C@@H]1N1CCN(c2cc3nc(Nc4cnn(C5CC5)c4Cl)ncc3cc2Cl)CC1` (single isomer, unassigned) [Ex-3.51, (3R,4R) or (3S,4S) 4-(4-{6-chloro-2-[(5-chloro-1-cyclopropyl-1H-pyrazol-4-yl)amino]quinazolin-7-yl}piperazin-1-yl)oxolan-3-ol], the figure is 16.3 nM; as for `O[C@@H]1COC[C@@H]1N1CCN(c2cc3nc(Nc4cnn(C5CC5)c4Cl)ncc3cc2Cl)CC1` (single isomer, unassigned) [Ex-3.52, (3R,4R) or (3S,4S) 4-(4-{6-chloro-2-[(5-chloro-1-cyclopropyl-1H-pyrazol-4-yl)amino]quinazolin-7-yl}piperazin-1-yl)oxolan-3-ol], 0.887 nM; as for `OC1COCC12CCN(c1cc3nc(Nc4cnn(C5CC5(F)F)c4Cl)ncc3cc1Cl)CC2` (single isomer, unassigned) [Ex-3.56], 3.56 nM. As to `OC1COCC12CCN(c1cc3nc(Nc4cnn(C5CC5(F)F)c4Cl)ncc3cc1Cl)CC2` (single isomer, unassigned) [Ex-3.57], the IC50 is 23.1 nM. Regarding `OC1COCC1N1CCN(c2cc3nc(Nc4cnn(C56CC(F)(C5)C6)c4Cl)ncc3cc2Cl)CC1` (single isomer, unassigned) [Ex-3.58, (3R,4R) or (3S,4S) 4-(4-(6-chloro-2-((5-chloro-1-(3-fluorobicyclo[1.1.1]pentan-1-y])-1H-pyrazol-4-yl)amino)quinazolin-7-yl)piperazin-1-yl) tetrahydrofuran-3-ol], the IC50 was 0.44 nM. Consider `CC1(N2CCN(c3cc4nc(Nc5cnn(C(F)F)c5Cl)ncc4cc3Cl)CC2)COCC1O` (single isomer, unassigned) [Ex-3.59, (3R,4R) or (3S,4S) 4-(4-(6-chloro-2-((5-chloro-1-(difluoromethyl)-1H-pyrazol-4-yl)amino)quinazolin-7-yl)piperazin-1-yl)-4-methyltetrahydrofuran-3-ol], for which the IC50 was 0.178 nM.

As for `CC1(N2CCN(c3cc4nc(Nc5cnn(C6CC6(F)F)c5Cl)ncc4cc3Cl)CC2)CCOC1` (single isomer, unassigned) [Ex-3.60, (R or S) 6-chloro-N-(5-chloro-1-((S) or (R) 2,2-difluorocyclopropyl)-1H-pyrazol-4-yl)-7-(4-(3-methyltetra-hydrofuran-3-yl)piperazin-1-yl) quinazolin-2-amine], the IC50 is 0.2 nM.

With `Cn1ncc(Nc2ncc3ccc(N4C(=O)C5CCC4C5)cc3n2)c1C(F)(F)F` (single isomer, unassigned) [Ex-4.4, 2-(2-{[1-methyl-5-(trifluoromethyl)-1H-pyrazol-4-yl]amino}quinazolin-7-yl)-2-azabicyclo[2.2.1]heptan-3-one], the IC50 was 24.6 nM. As for `Cn1ncc(Nc2ncc3ccc(N4C(=O)C5CCC4C5)cc3n2)c1C(F)(F)F` (single isomer, unassigned) [Ex-4.5, 2-(2-{[1-methyl-5-(trifluoromethyl)-1H-pyrazol-4-yl]amino}quinazolin-7-yl)-2-azabicyclo[2.2.1]heptan-3-one], the IC50 was 7.26 nM.

Take `Cn1ncc(Nc2ncc3ccc(N4C(=O)C5CCC4C5)cc3n2)c1C(F)F` (single isomer, unassigned) [Ex-4.6, 2-(2-{[5-(difluoromethyl)-1-methyl-1H-pyrazol-4-yl]amino}quinazolin-7-yl)-2-azabicyclo[2.2.1]heptan-3-one]: the IC50 is 34.9 nM. `Cn1ncc(Nc2ncc3ccc(N4C(=O)C5CCC4C5)cc3n2)c1C(F)F` (single isomer, unassigned) [Ex-4.7, 2-(2-{[5-(difluoromethyl)-1-methyl-1H-pyrazol-4-yl]amino}quinazolin-7-yl)-2-azabicyclo[2.2.1]heptan-3-one]: the IC50 was 3.19 nM.

Turning to `CC1CCC12CN(c1cc3nc(Nc4cnn(C5(C)CC5)c4Cl)ncc3cc1Cl)C2` (single isomer, unassigned) [Ex-4.25, (R) or (S) 6-chloro-N-[5-chloro-1-(1-methylcyclopropyl)-1H-pyrazol-4-yl]-7-(5-methyl-2-azaspiro[3.3]heptan-2-yl)quinazolin-2-amine], the IC50 is 570 nM. As to `CC1CCC12CN(c1cc3nc(Nc4cnn(C5(C)CC5)c4Cl)ncc3cc1Cl)C2` (single isomer, unassigned) [Ex-4.26, (R) or (S) 6-chloro-N-[5-chloro-1-(1-methylcyclopropyl)-1H-pyrazol-4-yl]-7-(5-methyl-2-azaspiro[3.3]heptan-2-yl)quinazolin-2-amine], the IC50 was 9.09 nM. To `CC1(N2CCN(c3cc4nc(Nc5cnn(C6CC6(F)F)c5Cl)ncc4cc3Cl)CC2)COC1` (single isomer, unassigned) [Ex-4.60, 6-chloro-N-[5-chloro-1-(2,2-(R) or (S)difluorocyclopropyl)-1H-pyrazol-4-yl]-7-[4-(3-methyloxetan-3-yl)piperazin-1-yl]quinazolin-2-amine] belongs 3.24 nM. To `CC1(N2CCN(c3cc4nc(Nc5cnn(C6CC6(F)F)c5Cl)ncc4cc3Cl)CC2)COC1` (single isomer, unassigned) [Ex-4.61, 6-chloro-N-[5-chloro-1-(2,2-(R) or (S)difluorocyclopropyl)-1H-pyrazol-4-yl]-7-[4-(3-methyloxetan-3-yl)piperazin-1-yl]quinazolin-2-amine] belongs 7.3 nM; to `Cc1cc2cnc(Nc3cnn(C4CC4(F)F)c3Cl)nc2cc1N1CCN([C@H]2COC[C@H]2O)CC1` (single isomer, unassigned) [Ex-5.1, (3S, 4S) or (3R, 4R) 4-(4-(2-((5-Chloro-1-(2,2-(R) or (S)difluorocyclopropyl)-1H-pyrazol-4-yl)amino)-6-methylquinazolin-7-yl)piperazin-1-yl)tetrahydrofuran-3-ol], 0.105 nM.

Consider `Cc1cc2cnc(Nc3cnn(C4CC4(F)F)c3C)nc2cc1N1CCN(C2COCC2O)CC1` (single isomer, unassigned) [Ex-5.2, (3S,4S) or (3R,4R) 4-(4-(2-((1-(2,2-(R) or (S)difluorocyclopropyl)-5-methyl-1H-pyrazol-4-yl)amino)-6-methylquinazolin-7-yl)piperazin-1-yl)tetrahydrofuran-3-ol], for which the IC50 is 0.45 nM. Turning to `Cc1cc2cnc(Nc3cnn(C4CC4(F)F)c3C)nc2cc1N1CCN(C2(C)COCC2O)CC1` (single isomer, unassigned) [Ex-5.3, (3S,4S) or (3R,4R) 4-(4-(2-((1-(2,2-(R) or (S)difluorocyclopropyl)-5-methyl-1H-pyrazol-4-yl)amino)-6-methylquinazolin-7-yl)piperazin-1-yl)-4-methyltetrahydrofuran-3-ol], the IC50 is 0.31 nM.
